Results published in patent US4091092A, “Polymyxin F and process of producing polymyxin F” (priority 1977, dated 1978).

Columns and labels:
Assay in all cases: Comparison of activities of polymyxins B and F, MIC
Format in all cases: cell-based
Escherichia coli SC8600 = details: Polymyxin-resistant variant of E. coli SC8599
Excerpt: (§1) *Organisms from the Squibb Culture Collection.
^a Polymyxin-resistant variant of E. coli SC8599

Escherichia coli SC9251 = details: E. coli SC9251
Excerpt: as §1

Escherichia coli SC8599 = details: E. coli SC8599
Excerpt: as §1

Escherichia coli SC9253 = details: Polymyxin-resistant variant of E. coli SC9251
Excerpt: as §1
(§2) ^b Polymyxin-resistant variants of E. coli SC9251

Escherichia coli SC9252 = details: Polymyxin-resistant variant of E. coli SC9251
Excerpt: as §1, §2

Polymyxin B was tested, and the MIC (Escherichia coli SC8600) was greater than 100 µg/mL, the MIC (Escherichia coli SC9251) was 0.06 µg/mL and the MIC (Escherichia coli SC8599) was 0.1 µg/mL. For the same substance, the MIC (Escherichia coli SC9253) was 50.0 µg/mL and the MIC (Escherichia coli SC9252) was 18.7 µg/mL.
